The values below are quoted from earlier work in PMC8198792, “Prediction of Anticancer Peptides with High Efficacy and Low Toxicity by Hybrid Model Based on 3D Structure of Peptides” (International Journal of Molecular Sciences, 2021).

One series concerns erythrocytes. Particulars: Hemolytic peptides dataset HD2; label 1 = hemolytic, 0 = non-hemolytic; ref Hemolytik/SATPdb; cited from earlier work. The text has this:
Supplement ijms-22-05630-s001.zip/Hemloytic Peptides(seguence).xlsx, sheet "HD1" | column: Activity || Supplement ijms-22-05630-s001.zip/Hemloytic Peptides(seguence).xlsx, sheet "HD2" | column: Activity || Supplement ijms-22-05630-s001.zip/Hemloytic Peptides(seguence).xlsx, sheet "HD3" | column: Activity
In the case of KWKLFKKIPKFLHLAKKF [compound 2405], the Activity is reported as 0.
As for VKLKVyPLKVKlyP [satpdb11392], the Activity was 1.
Take KLLLK [compound 3825]: the Activity is 1.
Consider GIIKKI [satpdb22209], for which the Activity was 0.
For the substance “kWkSFLkTFkSLKkTVLHTLLkAISS [satpdb10734]”, the Activity is recorded as 1.
Consider GIGKFLHSAKKFGKAFVGEIMNS [satpdb11151], for which the Activity was 1.
With AAGMGFFGAR [satpdb25191], the Activity is recorded as 0.
For KWKLFKKIPKFLHLAK [satpdb17849], the Activity is 0.

Still in this series, the particulars now being: cited from earlier work.
Take QADFQKVVAGVANALAHRYH [satpdb25830]: the Activity is recorded as 0 and the “Activity (dataset HD1, hemolytic 1 / non-hemolytic 0)” value is 0.
Consider RFGRFLRKIRRFRPK [satpdb23150], for which the Activity was 0 and the “Activity (dataset HD1, hemolytic 1 / non-hemolytic 0)” value is 0.
Consider ENMFNIKSSVESDSFWG [satpdb15776], for which the Activity was 0 and the “Activity (dataset HD1, hemolytic 1 / non-hemolytic 0)” value is 0.
Regarding “KWKSFLKTFKSAKKKVLHTALKAISS [satpdb11775]”, the Activity was 1.
As for KWKLFKKIGIGKFLHSAKKF [compound 2023], the Activity was 0.
For the substance RWRSFFKKAAHRGKHVGKRARTHYL [satpdb15888], the Activity was 0.
In the case of FLGPIIKIATGILPTAICKILKKC [satpdb24144], the Activity is reported as 0 and the “Activity (dataset HD1, hemolytic 1 / non-hemolytic 0)” value is listed as 0.
On to “GFMDTAKNVAKNVAVTLLDNLKCKITKAC [satpdb14159]”, for which the Activity is given as 1 and the “Activity (dataset HD1, hemolytic 1 / non-hemolytic 0)” value is listed as 1.
Take GLLSGTSVRGSI [satpdb16160]: the Activity is 1 and the “Activity (dataset HD1, hemolytic 1 / non-hemolytic 0)” value is on record as 1.
Regarding KKKKKKAAFALWLAFAA [compound 1148], the Activity is reported as 1.
SFHVFPPWMCKSLKKC [satpdb22093]: the Activity is listed as 0 and the “Activity (dataset HD1, hemolytic 1 / non-hemolytic 0)” value is 0.
Take PKLKTFLSKWIG [satpdb28564]: the Activity is given as 0 and the “Activity (dataset HD1, hemolytic 1 / non-hemolytic 0)” value was 0.
On to ILPWKLPLLPLRR [satpdb15320], for which the Activity is recorded as 0.
Consider AKKVSKRLEKLFSKIQNDK [satpdb19605], for which the Activity is 0 and the “Activity (dataset HD1, hemolytic 1 / non-hemolytic 0)” value is listed as 0.
DANVENGEDAEDLTDKFIGLMG [satpdb17330]: the Activity is on record as 0 and the “Activity (dataset HD1, hemolytic 1 / non-hemolytic 0)” value is given as 0.
As to IPHAVKAISDLI [satpdb15419], the Activity was 0.
Regarding AKKVFKRLEKLFSKIWNDK [satpdb16260], the Activity is 0 and the “Activity (dataset HD1, hemolytic 1 / non-hemolytic 0)” value was 0.
As for KWKWKW [satpdb24601], the Activity is 0.
Consider PKLLKTFLKWIG [satpdb11234], for which the Activity is 1 and the “Activity (dataset HD1, hemolytic 1 / non-hemolytic 0)” value is 1.
As to SFFKKAAHVGKHVGKAALTHYL [satpdb17678], the Activity is 0.
For the substance KIAEKFSGTRRG [satpdb24068], the Activity was 0 and the “Activity (dataset HD1, hemolytic 1 / non-hemolytic 0)” value is given as 0.
Turning to SFPFFPPGICKRLKRC [satpdb23345], the Activity is 0 and the “Activity (dataset HD1, hemolytic 1 / non-hemolytic 0)” value is 0.
Turning to “KWKSFLRTFKSPVRTVFHTALKPISS [satpdb15241]”, the Activity is 1 and the “Activity (dataset HD1, hemolytic 1 / non-hemolytic 0)” value is given as 1.
Turning to DSHEKRHHGYKRKFHEKHHSHRGY [satpdb14665], the Activity is listed as 0 and the “Activity (dataset HD1, hemolytic 1 / non-hemolytic 0)” value was 0.
On to KKWLKKWLK [satpdb18253], for which the Activity is reported as 0.
For the substance “KKKKKKKKKKGIGKFLHSAKKFGKAFVGEIMNS [satpdb13667]”, the Activity is recorded as 0 and the “Activity (dataset HD1, hemolytic 1 / non-hemolytic 0)” value is listed as 0.
For the substance KWKLFKKIKFLHSAKKF [satpdb22653], the Activity was 0.
In the case of KKAFAAAAAFAAWAAFAKKKK [satpdb16931], the Activity is reported as 0.
As for LKLFKKILKYL [satpdb12465], the Activity is on record as 1.
For GWKKWLRKGAKHLGQAAIK [satpdb12620], the Activity was 1.
QKAVLDCLKAAGSSLSKAAITAI [satpdb19403]: the Activity is reported as 0 and the “Activity (dataset HD1, hemolytic 1 / non-hemolytic 0)” value is 0.
For KNLRRITRKIIHIIKKYG [satpdb15247], the Activity was 1 and the “Activity (dataset HD1, hemolytic 1 / non-hemolytic 0)” value is listed as 1.
KLLKKPLKLKL [satpdb17171]: the Activity is reported as 0.
For the substance LRRLWLRANRL [satpdb19164], the Activity is reported as 0 and the “Activity (dataset HD1, hemolytic 1 / non-hemolytic 0)” value is reported as 0.
Consider WYLTLTLGYGRR [satpdb16552], for which the Activity is on record as 1 and the “Activity (dataset HD1, hemolytic 1 / non-hemolytic 0)” value is recorded as 1.
In the case of GWGSFFKKAAHVGKHVGKAALT [satpdb28107], the Activity is given as 0.
Regarding QTRRLTYKpRTVTYTRGR [satpdb13569], the Activity was 1.
Turning to KKKKKKALFAAWAAFLA [compound 1151], the Activity is reported as 1.
Turning to VIPFVASVAAEMMHHVYCAASKRC [satpdb16460], the Activity is reported as 1 and the “Activity (dataset HD1, hemolytic 1 / non-hemolytic 0)” value is reported as 1.
Regarding KLLKLLLKLLKLLLKLLLKLLK [compound 3828], the Activity was 1.
With KRLFKKLLFSLRKY [satpdb21867], the Activity was 0 and the “Activity (dataset HD1, hemolytic 1 / non-hemolytic 0)” value is given as 0.
Regarding KWKLFKKIPKFLHL [satpdb16155], the Activity was 0.
Regarding KWKLFKKIGPGKFLHSAKKF [satpdb18846], the Activity is 0.
For the substance KWLKKWL [satpdb27612], the Activity was 0.
As to RIIDLLWRVRRPQKPKFVTVWVR [satpdb14815], the Activity is on record as 0 and the “Activity (dataset HD1, hemolytic 1 / non-hemolytic 0)” value is 0.
As to FLSLIPHAINAVSAIAKHF [satpdb17651], the Activity was 0.
As to KKKKKKAAFAAWAAFAA [satpdb19804], the Activity is on record as 0.
For LKDVEEAQQKIINIIRRL [satpdb22186], the Activity was 0.
KAVAAKKSPKKAKKPAT [satpdb19355]: the Activity is given as 0 and the “Activity (dataset HD1, hemolytic 1 / non-hemolytic 0)” value was 0.
Turning to KKKKKKLLFAAWAAFAA [compound 1152], the Activity is recorded as 1.
For the substance LLKKLLKWLKK [satpdb11747], the Activity is recorded as 1.
In the case of PKLLKFLSKWIG [satpdb11566], the Activity is recorded as 1 and the “Activity (dataset HD1, hemolytic 1 / non-hemolytic 0)” value is 1.
Turning to “KWKSFLKTFKSLKKTVLHTLLKAISS [satpdb11586]”, the Activity is listed as 1.
Take GRRRRSVQWCA [satpdb24172]: the Activity was 0 and the “Activity (dataset HD1, hemolytic 1 / non-hemolytic 0)” value was 0.
With AKKVFKRLEKSFSKIQNDK [satpdb11458], the Activity is reported as 0 and the “Activity (dataset HD1, hemolytic 1 / non-hemolytic 0)” value is given as 0.
Take FGVLAKVAAHVVPAIAEHF [satpdb27842]: the Activity is given as 0.
With LVRGCWTKSYPPKPCFVR [satpdb11737], the Activity is 1 and the “Activity (dataset HD1, hemolytic 1 / non-hemolytic 0)” value is 1.
As to KLLLKLLLK [compound 3826], the Activity is on record as 1.
Turning to “GILDTLKQFAKGVGKDLVKGAAQGVLSTVSCKLAKTC [satpdb16042]”, the Activity was 0 and the “Activity (dataset HD1, hemolytic 1 / non-hemolytic 0)” value is 0.
With KSLRRVWRSWR [satpdb26460], the Activity was 0.
Consider KKLKKLKKKWKKLKKKLK [satpdb24596], for which the Activity is recorded as 0 and the “Activity (dataset HD1, hemolytic 1 / non-hemolytic 0)” value was 0.
On to KRLFRRLLFSMKKY [satpdb20261], for which the Activity is given as 0 and the “Activity (dataset HD1, hemolytic 1 / non-hemolytic 0)” value was 0.
Consider KKLKKLLKKWKKLLKKLK [satpdb24868], for which the Activity is 0 and the “Activity (dataset HD1, hemolytic 1 / non-hemolytic 0)” value is recorded as 0.
Turning to HVDKKVADKVLLLKQLRIMRLLTRL [satpdb19920], the Activity is on record as 0 and the “Activity (dataset HD1, hemolytic 1 / non-hemolytic 0)” value is listed as 0.
For GWKSVFRKAKKVGKTVGGLALDHYL [satpdb12845], the Activity is given as 1.
Turning to “GMWSKIKNAGKAAKAAAKAAGKAALGAVSEAM [satpdb14564]”, the Activity is on record as 0 and the “Activity (dataset HD1, hemolytic 1 / non-hemolytic 0)” value is 0.
As for ALWKTLLKKVLKA [satpdb11740], the Activity is recorded as 1.

The same series, now with this note: hemolytic peptides dataset HD3; 1 = hemolytic (positive set), 0 = non-hemolytic (negative set); labels taken from databases; ref Hemolytik/SATPdb; cited from earlier work.
“GVPCGESCVFIPCITGVIGCSCSSNVCYLN [satpdb12922]”: the Activity is 1.
As for KWKLFKKIPKFLHLAKKF [compound 2405], the Activity is reported as 0.
Turning to FIFPKKNIINSLFGR [satpdb24412], the Activity was 0.
For the substance VKLKVyPLKVKlyP [satpdb11392], the Activity was 1.
In the case of KLLLK [compound 3825], the Activity is 1.
In the case of GIIKKI [satpdb22209], the Activity is reported as 0.
Take “kWkSFLkTFkSLKkTVLHTLLkAISS [satpdb10734]”: the Activity is given as 1.
For the substance “RWKIFKKIEKVGRNVRDGIIKAGPAVAVVGQAATVVKG [satpdb26767]”, the Activity is recorded as 0.
Turning to “KWKSFLKTLKSPVKTVFYTALKPISS [satpdb14675]”, the Activity was 1.
As to GIGKFLHSAKKFGKAFVGEIMNS [satpdb11151], the Activity is 1.
With KNWKGIAGMAKKLLGKNWELMKK [satpdb11666], the Activity is 1.
Turning to AAGMGFFGAR [satpdb25191], the Activity is 0.
Turning to KWKLFKKIPKFLHLAK [satpdb17849], the Activity was 0.

The series is the same for the next values; noted with them: natural hemolytic peptide dataset HD1, label collected from databases; ref Hemolytik [49], SATPdb [34]; cited from earlier work.
For “GVPCGESCVFIPCITGVIGCSCSSNVCYLN [satpdb12922]”, the “Activity (dataset HD1, hemolytic 1 / non-hemolytic 0)” value is listed as 1.
In the case of FIFPKKNIINSLFGR [satpdb24412], the “Activity (dataset HD1, hemolytic 1 / non-hemolytic 0)” value was 0.
Regarding “RWKIFKKIEKVGRNVRDGIIKAGPAVAVVGQAATVVKG [satpdb26767]”, the “Activity (dataset HD1, hemolytic 1 / non-hemolytic 0)” value is recorded as 0.
Regarding “KWKSFLKTLKSPVKTVFYTALKPISS [satpdb14675]”, the “Activity (dataset HD1, hemolytic 1 / non-hemolytic 0)” value is 1.
On to KNWKGIAGMAKKLLGKNWELMKK [satpdb11666], for which the “Activity (dataset HD1, hemolytic 1 / non-hemolytic 0)” value is 1.
